Consider six compounds from US9909086B2, “Green glycine betaine derivative compounds and compositions containing same” (priority 2012, dated 2018).

Data set [1] is described as follows: Surface tension. Type of data set: physicochemical. The following applies: pure. The text has this:
Surface properties of betainyl amino alkyl(ene) methane sulfonates and alkyl(ene) betainate methane sulfonate surfactants are set forth below in Table 5. […] Comparative examples are provided by the GLUCOPON surfactants (commercially available from BASF, formerly known as Cognis) which are alkyl polyglucosides having a carbon length as indicated.

Data set [2] is described as follows: Foamability. Type of data set: physicochemical. The settings on record: concentration at CMC, flow rate 14 l/min. The text has this:
The surfactants of the invention also have foaming ability. This foaming ability is able to be effectively manipulated, i.e., foaming density increased, based on hydrocarbon chain length.

Data set [3] is described as follows: Wetting properties, contact angles on treated substrates. It counts as physicochemical.
A short description of data set [4]: Interfacial tension, emulsifying sunflower oil in water. It counts as physicochemical. The following applies: purified.
Data set [5] in a line: Viscosity (thickening and gelling). The following applies: aqueous solution. Type of data set: physicochemical. The text has this: Table 15 below illustrates the thickening of GB stearic amine aqueous solution as a function of concentration and time.
The examples of Table 15 are compounds present in water alone and, thus, the viscosity continues to change. After a certain point, the viscosity will plateau and not change anymore. If the surfactant is provided at a predetermined concentration, the desired viscosity will be reached right away and not continue to increase due to the stability provided. Thus, generally, as the surfactant concentration increases, so does the initial viscosity. Also over a period of time, the viscosity increases. The viscosity can be controlled to terminate the viscosity increase, i.e., achieve a pre-determined viscosity, by adding salts to the composition. Preferred salts are sodium chloride, potassium chloride, magnesium, chloride, and lithium chloride. Another feature of the invention is the ability to combine GB surfactants with natural polysaccharides to form gel and pseudoplastic viscous liquids or gels. Examples of polysaccharides are agar, carregenan, natural gum, pectin, gelatin, starch, cellulose derivatives, cellulose derived from wood pulp fiber, lignin, etc. […]

The conditions of data set [6]: aqueous solution; 20 seconds contact time; pure.
Setting [7] is: surfactant concentration 1 % w/w.
Where [8] appears, read: surfactant concentration 2 % w/w.
Where [9] appears, read: surfactant concentration 3 % w/w.
[10] abbreviates: surfactant concentration 4 % w/w.
The mark [11] stands for this setting: surfactant concentration 5 % w/w.
[12] abbreviates: surfactant concentration 6 % w/w.

For the compound `CCCCCCCCCCCCNC(=O)C[N+](C)(C)C.CS(=O)(=O)[O-]` [GB Lauric amide, Betainyl amino dodecane methane sulfonate], the “Surface Tension @ CMC” value in data set [1] was determined as 38 mN/m.
Turning to `CCCCCCCCCCCCCCNC(=O)C[N+](C)(C)C.CS(=O)(=O)[O-]` [GB Myristic amide, Betainyl amino tetradecane methane sulfonate], the “Surface Tension @ CMC” value in data set [1] amounted to 38 mN/m.
For the compound `CCCCCCCC/C=C\CCCCCCCCNC(=O)C[N+](C)(C)C.CS(=O)(=O)[O-]` [GB Oleic amide C18:1) pure, (Z)-betainyl amino octadec-9-ene methane sulfonate, pure], in data set [2], the Foam density was found to be 18 g/L and the “Time t: the time to fill 2 liters” value stood at 85 s.
On to `CCCCCCCC/C=C\CCCCCCCCNC(=O)C[N+](C)(C)C.CS(=O)(=O)[O-]` [GB Oleic amide, (Z)-betainyl amino octadec-9-ene methane sulfonate], for which, in data set [1], the “Surface Tension @ CMC” value is 36 mN/m. Besides, in data set [3] (surfactant conc. 1 % (w/w)), the “Contact angle on treated substrate, Enamel Tiles” value (“Contact angle … Enamel Tiles” for short) is on record as 27.6 °; the “Contact angle on treated substrate, Glass” value (“Contact angle … Glass” for short) is 22.6 °; the “Contact angle on treated substrate, Kitchen Soil” value (from here on “Contact angle … Kitchen Soil”) was determined as 46.4 °; the “Contact angle on treated substrate, Soap Scum” value (“Contact angle … Soap Scum” for short) stood at 31.1 °. Also, in data set [3] (surfactant conc. 3 % (w/w)), the “Contact angle … Enamel Tiles” value was 26.8 °; the “Contact angle … Glass” value was found to be 18.8 °; the “Contact angle … Kitchen Soil” value is recorded as 38.1 °; the “Contact angle … Soap Scum” value came to 31.3 °. In data set [4], this compound showed an IFT of 5.5 mN/m.
In the case of `CCCCCCCCCCCCCCCCNC(=O)C[N+](C)(C)C.CS(=O)(=O)[O-]` [GB Palmitic amide, Betainyl amino hexadecane methane sulfonate], in data set [1], the “Surface Tension @ CMC” value worked out at 37 mN/m.
As for `CCCCCCCCCCCCCCCCCCNC(=O)C[N+](C)(C)C.CS(=O)(=O)[O-]` [GB Stearic amide, Betainyl amino octadecane methane sulfonate], the “Initial Viscosity” value in data set [5] (setting [7]) was determined as 120 cP; in data set [5] (setting [8]), 160 cP; in data set [5] (setting [9]) it was 160 cP; in data set [5] (setting [10]) it was 2259 cP; in data set [5] (setting [11]), 3039 cP; in data set [5] (setting [12]), 5279 cP. The “Viscosity after 15 days” value in data set [5] (setting [7]) was found to be 160 cP; in data set [5] (setting [8]) it was 639 cP; in data set [5] (setting [9]), 807 cP; in data set [5] (setting [10]), 3626 cP; in data set [5] (setting [11]), 6079 cP; in data set [5] (setting [12]) it was 8851 cP. The “Surface Tension @ CMC” value in data set [1] turned out to be 39 mN/m. Also, the “Bathroom Soap Scum Solubilized” value in data set [6] is listed as 35%. In addition, the entries for the “Contact angle … Enamel Tiles” value in data set [3] (surfactant conc. 1 % (w/w)) and in data set [3] (surfactant conc. 3 % (w/w)) were 35.4 ° and 27.1 °, respectively. In addition, the “Contact angle … Glass” value in data set [3] (surfactant conc. 1 % (w/w)) is 23.1 °; in data set [3] (surfactant conc. 3 % (w/w)), 19.4 °. Further, the “Contact angle … Kitchen Soil” value in data set [3] (surfactant conc. 1 % (w/w)) is listed as 39.7 °; in data set [3] (surfactant conc. 3 % (w/w)) it was 34.6 °. In addition, the entries for the “Contact angle … Soap Scum” value in data set [3] (surfactant conc. 1 % (w/w)) and in data set [3] (surfactant conc. 3 % (w/w)) were 31.6 ° and 34.3 °, respectively. In data set [4], this compound registered an IFT of 5.2 mN/m.
